According to PubChem BioAssay (NCI):
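In this assay, cells in 96-well plates receive the compound at five concentrations for 48 hours. Endpoints are linearly interpolated between the surrounding concentrations. Here, GI50 denotes the concentration required for 50% inhibition of growth. At the TGI there is no net growth.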

Experiments:
Test in all cases: DTP human tumour cell line panel, 48 h
[1] = system: HOP-92 NSCLC
[2] = system: UACC-257 melanoma
[3] = system: T-47D breast
[4] = system: SF-539 CNS
[5] = system: OVCAR-3 ovarian
[6] = system: MCF7 breast
[7] = system: A549 NSCLC
[8] = system: A498 renal
[9] = system: HCC-2998 colon
[10] = system: TK-10 renal
[11] = system: NCI-H460 lung
[12] = system: OVCAR-4 ovarian
[13] = system: MALME-3M melanoma
[14] = system: SK-OV-3 ovarian
[15] = system: 786-0 renal
[16] = system: MDA-MB-435
[17] = system: DU-145 prostate
[18] = system: SNB-75 CNS
[19] = system: HOP-62 NSCLC
[20] = system: UACC-62 melanoma
[21] = system: HT29 colon
[22] = system: HL-60(TB) leukemia
[23] = system: NCI/ADR-RES ovarian
[24] = system: K-562 leukemia
[25] = system: U251 CNS
[26] = system: LOX IMVI melanoma
[27] = system: CAKI-1 renal
[28] = system: NCI-H522 lung
[29] = system: HCT-15 colon
[30] = system: KM12 colon
[31] = system: HCT-116 colon
[32] = system: MDA-MB-231 breast
[33] = system: NCI-H23 lung
[34] = system: UO-31 renal
[35] = system: RPMI-8226 leukemia
[36] = system: SR leukemia
[37] = system: SW-620 colon
[38] = system: IGROV1 ovarian
[39] = system: RXF 393 renal
[40] = system: MOLT-4 leukemia
[41] = system: SN12C renal
[42] = system: SF-268 CNS
[43] = system: ACHN renal
[44] = system: HS 578T breast
[45] = system: M14 melanoma
[46] = system: OVCAR-8 ovarian
[47] = system: SNB-19 CNS
[48] = system: BT-549 breast
[49] = system: PC-3 prostate
[50] = system: CCRF-CEM leukemia
[51] = system: EKVX NSCLC
[52] = system: SK-MEL-2 melanoma
[53] = system: SF-295 CNS
[54] = system: OVCAR-5 ovarian
[55] = system: SK-MEL-5 melanoma
[56] = system: COLO 205 colon
[57] = system: SK-MEL-28 melanoma
[58] = system: NCI-H226 lung

Cc1cc2nc3c4cc(C=O)ccc4n(CCN(C)C)c3nc2cc1C
GI50 [1]: 1490 nM
TGI [1]: 7350 nM
GI50 [2]: 1960 nM
TGI [2]: 4800 nM
GI50 [3]: 2140 nM
TGI [3]: 7040 nM
GI50 [4]: 1510 nM
TGI [4]: 3870 nM
GI50 [5]: 1970 nM
TGI [5]: 6580 nM
GI50 [6]: 1820 nM
TGI [6]: 5990 nM
GI50 [7]: 851 nM
TGI [7]: 10400 nM
GI50 [8]: 500 nM
TGI [8]: 2090 nM
GI50 [9]: 1330 nM
TGI [9]: 3140 nM
GI50 [10]: 1970 nM
TGI [10]: 6590 nM
GI50 [11]: 1190 nM
TGI [11]: 10100 nM
GI50 [12]: 2120 nM
TGI [12]: 7750 nM
GI50 [13]: 1290 nM
TGI [13]: 2760 nM
GI50 [14]: 2350 nM
TGI [14]: 10900 nM
GI50 [15]: 1430 nM
TGI [15]: 9960 nM
GI50 [16]: 1660 nM
TGI [16]: 3070 nM
GI50 [17]: 3030 nM
TGI [17]: 10600 nM
GI50 [18]: 1980 nM
TGI [18]: 5000 nM
GI50 [19]: 1540 nM
TGI [19]: 10100 nM
GI50 [20]: 1750 nM
TGI [20]: 3700 nM
GI50 [21]: 656 nM
TGI [21]: 3740 nM
GI50 [22]: 1350 nM
TGI [22]: 5840 nM
GI50 [23]: 607 nM
TGI [23]: 6970 nM
GI50 [24]: 820 nM
TGI [24]: 18600 nM
GI50 [25]: 1650 nM
TGI [25]: 10100 nM
GI50 [26]: 532 nM
TGI [26]: 2500 nM
GI50 [27]: 1700 nM
TGI [27]: 9690 nM
GI50 [28]: 1870 nM
TGI [28]: 4910 nM
GI50 [29]: 1360 nM
TGI [29]: 7240 nM
GI50 [30]: 2120 nM
TGI [30]: 10000 nM
GI50 [31]: 484 nM
TGI [31]: 9100 nM
GI50 [32]: 1830 nM
TGI [32]: 6990 nM
GI50 [33]: 1490 nM
TGI [33]: 4450 nM
GI50 [34]: 846 nM
TGI [34]: 8780 nM
GI50 [35]: 1910 nM
TGI [35]: 5160 nM
GI50 [36]: 435 nM
TGI [36]: 11100 nM
GI50 [37]: 479 nM
TGI [37]: 4310 nM
GI50 [38]: 1520 nM
TGI [38]: 6390 nM
GI50 [39]: 1060 nM
TGI [39]: 2740 nM
GI50 [40]: 389 nM
TGI [40]: 10300 nM
GI50 [41]: 1030 nM
TGI [41]: 8040 nM
GI50 [42]: 2050 nM
TGI [42]: 6630 nM
GI50 [43]: 426 nM
TGI [43]: 4560 nM
GI50 [44]: 2250 nM
TGI [44]: 6700 nM
GI50 [45]: 1300 nM
TGI [45]: 2950 nM
GI50 [46]: 777 nM
TGI [46]: 10900 nM
GI50 [47]: 1650 nM
TGI [47]: 9090 nM
GI50 [48]: 2150 nM
TGI [48]: 5350 nM
GI50 [49]: 1620 nM
TGI [49]: 5710 nM
GI50 [50]: 1140 nM
TGI [50]: 7770 nM
GI50 [51]: 2040 nM
TGI [51]: 6270 nM
GI50 [52]: 1760 nM
TGI [52]: 3650 nM
GI50 [53]: 696 nM
TGI [53]: 5690 nM
GI50 [54]: 2170 nM
TGI [54]: 7230 nM
GI50 [55]: 1690 nM
TGI [55]: 3330 nM
GI50 [56]: 574 nM
TGI [56]: 2100 nM
GI50 [57]: 1780 nM
TGI [57]: 3650 nM
GI50 [58]: 2070 nM
TGI [58]: 7320 nM

COC(=O)c1ccc2[nH]c(O)c(C(=Nc3ccc(N(C)C(=O)CN4CCN(C)CC4)cc3)c3ccc(OC)cc3)c2c1
GI50 [1]: 3700 nM
TGI [1]: 15200 nM
GI50 [2]: 10500 nM
TGI [2]: 22800 nM
GI50 [3]: 1820 nM
TGI [3]: 18100 nM
GI50 [4]: 473 nM
TGI [4]: 1760 nM
GI50 [5]: 1230 nM
TGI [5]: 2830 nM
GI50 [6]: 518 nM
TGI [6]: 2490 nM
GI50 [7]: 2010 nM
TGI [7]: 12100 nM
GI50 [8]: 1520 nM
TGI [8]: 3110 nM
GI50 [9]: 2120 nM
TGI [9]: 10600 nM
GI50 [10]: 2390 nM
TGI [10]: 12400 nM
GI50 [11]: 1480 nM
TGI [11]: 3760 nM
GI50 [12]: 928 nM
TGI [12]: 3140 nM
GI50 [13]: 1330 nM
TGI [13]: 2720 nM
GI50 [14]: 228 nM
TGI [14]: 1750 nM
GI50 [15]: 730 nM
TGI [15]: 2130 nM
GI50 [16]: 2050 nM
TGI [16]: 14500 nM
GI50 [17]: 2370 nM
TGI [17]: 11300 nM
GI50 [18]: 294 nM
TGI [18]: 8270 nM
GI50 [19]: 1570 nM
TGI [19]: 12400 nM
GI50 [20]: 4960 nM
TGI [20]: 18600 nM
GI50 [21]: 1110 nM
TGI [21]: 25200 nM
GI50 [22]: 712 nM
TGI [22]: 3150 nM
GI50 [23]: 12500 nM
TGI [23]: 37200 nM
GI50 [24]: 255 nM
TGI [24]: 10200 nM
GI50 [25]: 1090 nM
TGI [25]: 2480 nM
GI50 [26]: 506 nM
TGI [26]: 2130 nM
GI50 [27]: 383 nM
TGI [27]: 11100 nM
GI50 [28]: 1660 nM
TGI [28]: 5600 nM
GI50 [29]: 1810 nM
TGI [29]: 6610 nM
GI50 [30]: 43.2 nM
TGI [30]: 6450 nM
GI50 [31]: 227 nM
TGI [31]: 10100 nM
GI50 [32]: 1070 nM
TGI [32]: 2950 nM
GI50 [33]: 1250 nM
TGI [33]: 3640 nM
GI50 [34]: 1370 nM
TGI [34]: 4460 nM
GI50 [35]: 1460 nM
TGI [35]: 4400 nM
GI50 [36]: 309 nM
TGI [36]: 4920 nM
GI50 [37]: 756 nM
TGI [37]: 4350 nM
GI50 [38]: 226 nM
TGI [38]: 2600 nM
GI50 [39]: 466 nM
TGI [39]: 1820 nM
GI50 [40]: 414 nM
TGI [40]: 3620 nM
GI50 [41]: 410 nM
TGI [41]: 13100 nM
GI50 [42]: 2610 nM
TGI [42]: 13600 nM
GI50 [43]: 1710 nM
TGI [43]: 10300 nM
GI50 [44]: 186 nM
TGI [44]: 10300 nM
GI50 [45]: 724 nM
TGI [45]: 2280 nM
GI50 [46]: 1180 nM
TGI [46]: 24600 nM
GI50 [47]: 2100 nM
TGI [47]: 10000 nM
GI50 [48]: 1150 nM
TGI [48]: 2650 nM
GI50 [49]: 1160 nM
TGI [49]: 7770 nM
GI50 [50]: 414 nM
TGI [50]: 11100 nM
GI50 [51]: 2380 nM
TGI [51]: 12400 nM
GI50 [52]: 2040 nM
TGI [52]: 7040 nM
GI50 [53]: 1250 nM
TGI [53]: 3490 nM
GI50 [54]: 5210 nM
TGI [54]: 17600 nM
GI50 [55]: 1350 nM
TGI [55]: 2770 nM
GI50 [56]: 664 nM
TGI [56]: 2340 nM
GI50 [57]: 3150 nM
TGI [57]: 14000 nM
GI50 [58]: 906 nM
TGI [58]: 18900 nM
